Assay results as given in patent US20230139445A1, “BACTERIAL CELLS WITH IMPROVED TOLERANCE TO DIACIDS” (priority 2016, published 2023).
Where two headings read alike, the source gives them in different places.

What was measured:
[1] = tested on: Escherichia coli K-12 MG1655; assay: Growth of K-12 MG1655 in varying concentrations of fumaric, itaconic, malic and succinic acid, Growth Profiler; format: cell-based
Method in brief: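 Escherichia coli K-12 MG1655 cultures were grown in M9 medium with 1% glucose and challenged with the dicarboxylic acids, supplied as neutral sodium salts or as free acids neutralized to pH 7.0 with sodium hydroxide. Plates were shaken at 225 rpm and 37° C. in a Growth Profiler, scanned every 15 minutes, and green pixel values were converted to OD600 by calibration.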

[2] = tested on: Escherichia coli K-12 MG1655 and evolved isolates; format: cell-based; settings: 50 g/L succinic acid
Method in brief: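 Wild-type MG1655 and evolved isolates, precultured overnight in M9 + 1% glucose at 37 °C, were diluted into M9 + 1% glucose. Growth at 37 °C, 225 rpm, scanned every 15 min; pixel values calibrated to OD600. Diacids tested as sodium salts or neutralized to pH 7.0.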

O=C(O)CCC(=O)O [succinic acid]
μ (mean) ([1]; growth rate of K-12 MG1655, 10 g/L diacid (sodium salt)): 0.665 h^1
μ (mean) ([1]; growth rate of K-12 MG1655, 20 g/L diacid (sodium salt)): 0.610 h^1
μ (mean) ([1]; growth rate of K-12 MG1655, 30 g/L diacid (sodium salt)): 0.496 h^1
μ (mean) ([1]; growth rate of K-12 MG1655, 40 g/L diacid (sodium salt)): 0.345 h^1
μ (mean) ([1]; growth rate of K-12 MG1655, 50 g/L diacid (sodium salt)): 0.179 h^1
μ (mean) ([1]; growth rate of K-12 MG1655, 60 g/L diacid (sodium salt)): 0.127 h^1
tlag (mean) ([1]; lag time of K-12 MG1655, 10 g/L diacid (sodium salt)): 5.4 h
tlag (mean) ([1]; lag time of K-12 MG1655, 20 g/L diacid (sodium salt)): 6.7 h
tlag (mean) ([1]; lag time of K-12 MG1655, 30 g/L diacid (sodium salt)): 8.9 h
tlag (mean) ([1]; lag time of K-12 MG1655, 40 g/L diacid (sodium salt)): 13.4 h
tlag (mean) ([1]; lag time of K-12 MG1655, 50 g/L diacid (sodium salt)): 22.4 h
tlag (mean) ([1]; lag time of K-12 MG1655, 60 g/L diacid (sodium salt)): 42.5 h
growth rate μ (mean) ([2]; strain ADIP1-1): 0.299 h⁻¹
lag time tlag (mean) ([2]; strain ADIP1-1): 16.1 h
growth rate μ (mean) ([2]; strain ADIP1-9): 0.290 h⁻¹
lag time tlag (mean) ([2]; strain ADIP1-9): 14.5 h
growth rate μ (mean) ([2]; strain ADIP2-5): 0.260 h⁻¹
lag time tlag (mean) ([2]; strain ADIP2-5): 25.5 h
growth rate μ (mean) ([2]; strain ADIP2-6): 0.278 h⁻¹
lag time tlag (mean) ([2]; strain ADIP2-6): 21.7 h
growth rate μ (mean) ([2]; strain ADIP2-10): 0.262 h⁻¹
lag time tlag (mean) ([2]; strain ADIP2-10): 22.0 h
growth rate μ (mean) ([2]; strain ADIP3-2): 0.311 h⁻¹
lag time tlag (mean) ([2]; strain ADIP3-2): 13.2 h
growth rate μ (mean) ([2]; strain ADIP3-4): 0.308 h⁻¹
lag time tlag (mean) ([2]; strain ADIP3-4): 12.7 h
growth rate μ (mean) ([2]; strain ADIP3-8): 0.304 h⁻¹
lag time tlag (mean) ([2]; strain ADIP3-8): 13.8 h
growth rate μ (mean) ([2]; strain ADIP4-1): 0.206 h⁻¹
lag time tlag (mean) ([2]; strain ADIP4-1): 15.7 h
growth rate μ (mean) ([2]; strain ADIP4-8): 0.228 h⁻¹
lag time tlag (mean) ([2]; strain ADIP4-8): 15.8 h
growth rate μ (mean) ([2]; strain ADIP5-2): 0.192 h⁻¹
lag time tlag (mean) ([2]; strain ADIP5-2): 13.5 h
growth rate μ (mean) ([2]; strain ADIP5-6): 0.361 h⁻¹
lag time tlag (mean) ([2]; strain ADIP5-6): 12.1 h
growth rate μ (mean) ([2]; strain ADIP6-3): 0.246 h⁻¹
lag time tlag (mean) ([2]; strain ADIP6-3): 14.9 h
growth rate μ (mean) ([2]; strain ADIP6-9): 0.210 h⁻¹
lag time tlag (mean) ([2]; strain ADIP6-9): 18.4 h
growth rate μ (mean) ([2]; strain ADIP6-10): 0.285 h⁻¹
lag time tlag (mean) ([2]; strain ADIP6-10): 12.4 h
growth rate μ (mean) ([2]; strain ADIP7-2): 0.294 h⁻¹
lag time tlag (mean) ([2]; strain ADIP7-2): 12.5 h
growth rate μ (mean) ([2]; strain ADIP7-5): 0.274 h⁻¹
lag time tlag (mean) ([2]; strain ADIP7-5): 12.4 h
growth rate μ (mean) ([2]; strain ADIP8-3): 0.146 h⁻¹
lag time tlag (mean) ([2]; strain ADIP8-3): 22.1 h
growth rate μ (mean) ([2]; strain ADIP8-7): 0.163 h⁻¹
lag time tlag (mean) ([2]; strain ADIP8-7): 23.2 h
growth rate μ (mean) ([2]; strain ADIP8-10): 0.131 h⁻¹
lag time tlag (mean) ([2]; strain ADIP8-10): 20.0 h
growth rate μ (mean) ([2]; strain GLUT1-3): 0.231 h⁻¹
lag time tlag (mean) ([2]; strain GLUT1-3): 14.5 h
growth rate μ (mean) ([2]; strain GLUT1-9): 0.194 h⁻¹
lag time tlag (mean) ([2]; strain GLUT1-9): 20.8 h
growth rate μ (mean) ([2]; strain GLUT1-10): 0.246 h⁻¹
lag time tlag (mean) ([2]; strain GLUT1-10): 20.0 h
growth rate μ (mean) ([2]; strain GLUT2-1): 0.232 h⁻¹
lag time tlag (mean) ([2]; strain GLUT2-1): 14.7 h
growth rate μ (mean) ([2]; strain GLUT2-9): 0.213 h⁻¹
lag time tlag (mean) ([2]; strain GLUT2-9): 14.4 h
growth rate μ (mean) ([2]; strain GLUT2-10): 0.277 h⁻¹
lag time tlag (mean) ([2]; strain GLUT2-10): 13.4 h
growth rate μ (mean) ([2]; strain GLUT3-5): 0.242 h⁻¹
lag time tlag (mean) ([2]; strain GLUT3-5): 16.1 h
growth rate μ (mean) ([2]; strain GLUT3-7): 0.235 h⁻¹
lag time tlag (mean) ([2]; strain GLUT3-7): 15.3 h
growth rate μ (mean) ([2]; strain GLUT3-9): 0.221 h⁻¹
lag time tlag (mean) ([2]; strain GLUT3-9): 20.6 h
growth rate μ (mean) ([2]; strain GLUT4-1): 0.263 h⁻¹
lag time tlag (mean) ([2]; strain GLUT4-1): 16.3 h
growth rate μ (mean) ([2]; strain GLUT4-4): 0.242 h⁻¹
lag time tlag (mean) ([2]; strain GLUT4-4): 16.6 h
growth rate μ (mean) ([2]; strain GLUT4-10): 0.231 h⁻¹
lag time tlag (mean) ([2]; strain GLUT4-10): 15.7 h
growth rate μ (mean) ([2]; strain GLUT5-4): 0.281 h⁻¹
lag time tlag (mean) ([2]; strain GLUT5-4): 17.0 h
growth rate μ (mean) ([2]; strain GLUT5-5): 0.264 h⁻¹
lag time tlag (mean) ([2]; strain GLUT5-5): 18.4 h
growth rate μ (mean) ([2]; strain GLUT5-9): 0.244 h⁻¹
lag time tlag (mean) ([2]; strain GLUT5-9): 18.4 h
growth rate μ (mean) ([2]; strain GLUT6-4): 0.241 h⁻¹
lag time tlag (mean) ([2]; strain GLUT6-4): 14.2 h
growth rate μ (mean) ([2]; strain GLUT6-5): 0.243 h⁻¹
lag time tlag (mean) ([2]; strain GLUT6-5): 13.9 h
growth rate μ (mean) ([2]; strain GLUT6-10): 0.211 h⁻¹
lag time tlag (mean) ([2]; strain GLUT6-10): 14.4 h
growth rate μ (mean) ([2]; strain GLUT7-2): 0.223 h⁻¹
lag time tlag (mean) ([2]; strain GLUT7-2): 14.9 h
growth rate μ (mean) ([2]; strain GLUT7-6): 0.195 h⁻¹
lag time tlag (mean) ([2]; strain GLUT7-6): 17.8 h
growth rate μ (mean) ([2]; strain GLUT7-7): 0.156 h⁻¹
lag time tlag (mean) ([2]; strain GLUT7-7): 19.9 h
growth rate μ (mean) ([2]; strain GLUT8-5): 0.198 h⁻¹
lag time tlag (mean) ([2]; strain GLUT8-5): 16.4 h
growth rate μ (mean) ([2]; strain GLUT8-6): 0.236 h⁻¹
lag time tlag (mean) ([2]; strain GLUT8-6): 34.1 h
growth rate μ (mean) ([2]; strain GLUT8-9): 0.250 h⁻¹
lag time tlag (mean) ([2]; strain GLUT8-9): 38.0 h
growth rate μ (mean) ([2]; strain MG1655 (Table 28)): 0.169 h⁻¹
lag time tlag (mean) ([2]; strain MG1655 (Table 28)): 20.2 h
growth rate μ (mean) ([2]; strain MG1655 (Table 29)): 0.143 h⁻¹
lag time tlag (mean) ([2]; strain MG1655 (Table 29)): 23.8 h
